Experimental data as given in ChEMBL document CHEMBL5210307, “Affinity Biochemical Literature for EUbOPEN Chemogenomics Library wave 3” (2023).

Legend:
[1] = biological target: Calcium/calmodulin-dependent protein kinase kinase 2 (Homo sapiens, UniProt Q96RR4); experiment: Affinity Biochemical interaction (Enzymatic activity assay) EUB0000168b CAMKK2; set-up: mode of action Negative control for SGC-CAMKK2-1 (UNC-YL-36), recommended concentration 1 uM
[2] = biological target: Histone acetyltransferase KAT2B (Homo sapiens, UniProt Q92831); experiment: Affinity Biochemical interaction (BROMOscan assay (DiscoverX)) EUB0000218c KAT2B; set-up: mode of action Inhibitor, recommended concentration 1 uM
[3] = biological target: Nucleosome-remodeling factor subunit BPTF (Homo sapiens, UniProt Q12830); experiment: Affinity Biochemical interaction (BioLayer Interferometry assay (BLI)) EUB0000254b BPTF; set-up: mode of action Negative control for NVS-BPTF-1, recommended concentration 1 uM
[4] = biological target: Fatty-acid amide hydrolase 1 (Homo sapiens, UniProt O00519); experiment: Affinity Biochemical interaction (Binding assay) EUB0000540a FAAH; set-up: mode of action Negative control for PF-04457845, recommended concentration 1 uM
[5] = biological target: Epithelial discoidin domain-containing receptor 1 (Homo sapiens, UniProt Q08345); experiment: Affinity Biochemical interaction (Radiometric assay (10 µM ATP, Reaction Biology)) EUB0000156b DDR1; set-up: mode of action Negative control for DDR-TRK-1 (D2202-1), recommended concentration 1 uM
[6] = biological target: High affinity nerve growth factor receptor (Homo sapiens, UniProt P04629); experiment: Affinity Biochemical interaction (Radiometric assay (10 µM ATP, Reaction Biology)) EUB0000156b NTRK1; set-up: mode of action Negative control for DDR-TRK-1 (D2202-1), recommended concentration 1 uM
[7] = biological target: Discoidin domain-containing receptor 2 (Homo sapiens, UniProt Q16832); experiment: Affinity Biochemical interaction (Radiometric assay (10 µM ATP, Reaction Biology)) EUB0000156b DDR2; set-up: mode of action Negative control for DDR-TRK-1 (D2202-1), recommended concentration 1 uM
[8] = biological target: NT-3 growth factor receptor (Homo sapiens, UniProt Q16288); experiment: Affinity Biochemical interaction (Radiometric assay (10 µM ATP, Reaction Biology)) EUB0000156b NTRK3; set-up: mode of action Negative control for DDR-TRK-1 (D2202-1), recommended concentration 1 uM
Protein AF-9 [9] = biological target: T1, Protein AF-9 (Homo sapiens, UniProt P42568); experiment: Affinity Biochemical interaction (AlphaScreen assay) EUB0000283b MLLT3; set-up: mode of action Inhibitor, recommended concentration 1 uM
T1 sequence (P42568 whole entry): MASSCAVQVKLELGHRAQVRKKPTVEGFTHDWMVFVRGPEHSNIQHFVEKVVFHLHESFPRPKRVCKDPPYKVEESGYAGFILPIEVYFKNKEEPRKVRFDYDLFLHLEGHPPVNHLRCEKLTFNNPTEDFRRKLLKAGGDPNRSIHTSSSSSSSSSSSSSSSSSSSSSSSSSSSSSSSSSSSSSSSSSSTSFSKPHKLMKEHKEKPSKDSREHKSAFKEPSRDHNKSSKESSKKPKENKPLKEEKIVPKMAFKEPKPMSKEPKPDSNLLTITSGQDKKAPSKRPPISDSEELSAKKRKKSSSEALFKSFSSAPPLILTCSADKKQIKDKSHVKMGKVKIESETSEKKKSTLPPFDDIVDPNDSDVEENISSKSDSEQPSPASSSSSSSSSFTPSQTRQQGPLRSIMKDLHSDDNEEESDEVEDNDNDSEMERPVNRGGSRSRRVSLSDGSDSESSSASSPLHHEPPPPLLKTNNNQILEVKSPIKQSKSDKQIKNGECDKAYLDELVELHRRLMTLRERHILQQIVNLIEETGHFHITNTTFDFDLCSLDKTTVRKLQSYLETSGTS

Protein ENL = Protein ENL (Homo sapiens, UniProt Q03111); experiment: Affinity Biochemical interaction (AlphaScreen assay) EUB0000283b MLLT1; set-up: mode of action Inhibitor, recommended concentration 1 uM
[10] = biological target: Oxidized purine nucleoside triphosphate hydrolase (Homo sapiens, UniProt P36639); experiment: Affinity Biochemical interaction (PPiLight Biochemical Assay (full-length human NUDT1)) EUB0000587a NUDT1
[11] = biological target: Bifunctional epoxide hydrolase 2 (Homo sapiens, UniProt P34913); experiment: Affinity Biochemical interaction (Human soluble epoxide hydrolase inhibition) EUB0000541a EPHX2; set-up: mode of action Negative control for BI-1935, recommended concentration 100 nM
[12] = biological target: 5'-AMP-activated protein kinase catalytic subunit alpha-1 (Homo sapiens, UniProt Q13131); experiment: Affinity Biochemical interaction (Biochemical PRKAA1 assay (10 µM ATP)) EUB0000707a PRKAA1; set-up: mode of action Negative control for BAY-3827, recommended concentration 100 nM
Fatty acid synthase = Fatty acid synthase (Homo sapiens, UniProt P49327); experiment: Affinity Biochemical interaction (Human FAS enzyme assay (measuring consumption of NADPH)) EUB0000738a FASN; set-up: mode of action Negative control for BI 99179, recommended concentration 1 uM
[13] = biological target: AP2-associated protein kinase 1 (Homo sapiens, UniProt Q2M2I8); experiment: Affinity Biochemical interaction (Competition binding assay) EUB0000166b AAK1; set-up: mode of action Negative control for SGC-AAK1-1, recommended concentration 1 uM
[14] = biological target: BMP-2-inducible protein kinase (Homo sapiens, UniProt Q9NSY1); experiment: Affinity Biochemical interaction (Competition binding assay) EUB0000166b BMP2K; set-up: mode of action Negative control for SGC-AAK1-1, recommended concentration 1 uM
[15] = biological target: Protein farnesyltransferase subunit beta (Homo sapiens, UniProt P49356); experiment: Affinity Biochemical interaction (Scintillation proximity assay (SPA)) EUB0000289c FNTB; set-up: mode of action Inhibitor, recommended concentration 1 uM
Protein AF-9 [16] = biological target: T1, Protein AF-9
[17] = biological target: Transient receptor potential cation channel subfamily A member 1 (Homo sapiens, UniProt O75762); experiment: Affinity Biochemical interaction (FLIPR-based Ca2+ assay (activated by 30 µM AITC)) EUB0000308b TRPA1; set-up: mode of action Antagonist, recommended concentration 1 uM
[18] = biological target: Dual specificity protein kinase CLK4 (Homo sapiens, UniProt Q9HAZ1); experiment: Affinity Biochemical interaction (NanoBRET assay (in HEK293T cells)) EUB0000009b CLK4; format: cell-based; set-up: mode of action Negative control for MU1210, recommended concentration 1 uM
[19] = biological target: Dual specificity protein kinase CLK1 (Homo sapiens, UniProt P49759); experiment: Affinity Biochemical interaction (NanoBRET assay (in HEK293T cells)) EUB0000009b CLK1; format: cell-based; set-up: mode of action Negative control for MU1210, recommended concentration 1 uM
[20] = biological target: Dual specificity protein kinase CLK2 (Homo sapiens, UniProt P49760); experiment: Affinity Biochemical interaction (NanoBRET assay (in HEK293T cells)) EUB0000009b CLK2; format: cell-based; set-up: mode of action Negative control for MU1210, recommended concentration 1 uM
Ephrin type-B receptor 4 = Ephrin type-B receptor 4 (Homo sapiens, UniProt P54760); experiment: Affinity Biochemical interaction (Microscale thermophoresis (MST) assay) EUB0000143b EPHB4; set-up: mode of action Inhibitor, recommended concentration 100 nM
[21] = biological target: Sodium/hydrogen exchanger 1 (Homo sapiens, UniProt P19634); experiment: Affinity Biochemical interaction (pHi change assay) EUB0000545a SLC9A1; set-up: mode of action Negative control for BI-9627, recommended concentration 1 uM

Protein ENL, sequence (Q03111 whole entry): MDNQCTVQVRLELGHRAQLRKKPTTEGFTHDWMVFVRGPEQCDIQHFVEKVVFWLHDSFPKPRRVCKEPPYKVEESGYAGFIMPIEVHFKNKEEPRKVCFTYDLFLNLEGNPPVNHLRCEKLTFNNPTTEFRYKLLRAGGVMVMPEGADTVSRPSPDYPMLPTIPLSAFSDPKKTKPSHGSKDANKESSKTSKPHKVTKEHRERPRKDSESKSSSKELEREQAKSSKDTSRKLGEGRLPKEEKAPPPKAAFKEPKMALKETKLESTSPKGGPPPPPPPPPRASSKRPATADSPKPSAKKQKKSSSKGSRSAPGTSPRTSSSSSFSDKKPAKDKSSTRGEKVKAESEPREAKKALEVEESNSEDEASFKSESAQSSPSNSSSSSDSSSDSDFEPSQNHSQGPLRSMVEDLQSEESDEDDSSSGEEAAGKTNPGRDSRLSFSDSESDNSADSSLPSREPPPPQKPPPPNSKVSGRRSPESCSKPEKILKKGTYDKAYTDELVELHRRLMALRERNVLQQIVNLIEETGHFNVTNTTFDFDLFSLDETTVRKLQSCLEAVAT
BMP-2-inducible protein kinase, sequence (Q9NSY1 whole entry, the tested form may be a part): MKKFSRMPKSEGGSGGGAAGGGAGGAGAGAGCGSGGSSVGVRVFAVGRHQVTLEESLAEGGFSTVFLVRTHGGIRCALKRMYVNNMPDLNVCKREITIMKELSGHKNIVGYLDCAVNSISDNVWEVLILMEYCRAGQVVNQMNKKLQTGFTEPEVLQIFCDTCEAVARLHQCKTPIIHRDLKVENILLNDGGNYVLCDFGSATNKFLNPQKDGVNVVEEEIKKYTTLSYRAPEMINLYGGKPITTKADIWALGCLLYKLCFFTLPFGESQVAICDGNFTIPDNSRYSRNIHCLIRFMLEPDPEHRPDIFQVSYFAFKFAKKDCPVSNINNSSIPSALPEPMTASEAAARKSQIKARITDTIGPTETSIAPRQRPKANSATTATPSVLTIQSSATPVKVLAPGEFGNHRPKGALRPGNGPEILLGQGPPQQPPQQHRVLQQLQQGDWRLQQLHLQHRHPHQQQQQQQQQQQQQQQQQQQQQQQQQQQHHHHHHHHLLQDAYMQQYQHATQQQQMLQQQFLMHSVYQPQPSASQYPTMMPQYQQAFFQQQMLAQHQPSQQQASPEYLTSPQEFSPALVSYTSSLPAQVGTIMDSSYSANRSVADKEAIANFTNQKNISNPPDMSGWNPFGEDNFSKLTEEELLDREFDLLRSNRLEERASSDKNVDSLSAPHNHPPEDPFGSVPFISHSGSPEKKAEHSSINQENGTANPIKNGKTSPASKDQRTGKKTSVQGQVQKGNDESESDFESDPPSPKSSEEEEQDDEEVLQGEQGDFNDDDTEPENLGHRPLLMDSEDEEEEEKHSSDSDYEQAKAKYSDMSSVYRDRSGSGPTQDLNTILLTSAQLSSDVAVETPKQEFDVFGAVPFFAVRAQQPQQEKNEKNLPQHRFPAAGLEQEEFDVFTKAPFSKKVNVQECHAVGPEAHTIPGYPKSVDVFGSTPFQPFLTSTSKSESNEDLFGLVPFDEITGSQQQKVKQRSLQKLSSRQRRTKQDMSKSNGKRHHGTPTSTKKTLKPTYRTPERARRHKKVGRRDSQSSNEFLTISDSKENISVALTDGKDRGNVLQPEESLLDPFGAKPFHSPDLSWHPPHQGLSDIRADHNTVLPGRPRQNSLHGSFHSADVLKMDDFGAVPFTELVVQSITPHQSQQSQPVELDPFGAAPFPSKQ
AP2-associated protein kinase 1, sequence (Q2M2I8 whole entry, the tested form may be a part): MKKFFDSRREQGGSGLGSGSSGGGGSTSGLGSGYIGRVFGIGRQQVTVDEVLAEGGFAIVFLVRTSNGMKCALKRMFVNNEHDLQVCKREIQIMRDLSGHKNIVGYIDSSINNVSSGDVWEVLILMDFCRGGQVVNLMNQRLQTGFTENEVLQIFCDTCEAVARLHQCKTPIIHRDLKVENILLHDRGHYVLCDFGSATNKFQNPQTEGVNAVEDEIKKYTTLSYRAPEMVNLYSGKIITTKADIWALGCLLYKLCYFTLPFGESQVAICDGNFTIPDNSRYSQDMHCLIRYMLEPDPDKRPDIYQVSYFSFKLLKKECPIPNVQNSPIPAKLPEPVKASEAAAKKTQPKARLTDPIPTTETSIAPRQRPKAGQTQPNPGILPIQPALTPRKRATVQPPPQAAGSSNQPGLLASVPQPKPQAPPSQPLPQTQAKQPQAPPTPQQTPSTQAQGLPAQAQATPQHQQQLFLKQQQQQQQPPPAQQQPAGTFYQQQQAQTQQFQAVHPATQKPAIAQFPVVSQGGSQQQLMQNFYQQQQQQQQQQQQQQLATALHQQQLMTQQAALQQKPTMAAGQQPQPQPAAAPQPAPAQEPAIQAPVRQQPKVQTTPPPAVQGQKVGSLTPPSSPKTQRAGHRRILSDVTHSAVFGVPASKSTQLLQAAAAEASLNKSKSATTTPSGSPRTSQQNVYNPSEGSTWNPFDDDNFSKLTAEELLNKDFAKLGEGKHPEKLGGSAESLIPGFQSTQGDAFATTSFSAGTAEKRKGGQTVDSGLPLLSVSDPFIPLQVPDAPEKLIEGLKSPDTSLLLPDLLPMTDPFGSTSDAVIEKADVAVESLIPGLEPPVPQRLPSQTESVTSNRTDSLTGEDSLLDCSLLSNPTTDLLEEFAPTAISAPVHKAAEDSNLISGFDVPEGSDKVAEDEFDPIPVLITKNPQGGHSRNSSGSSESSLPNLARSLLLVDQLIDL
Discoidin domain-containing receptor 2, sequence (Q16832 whole entry, the tested form may be a part): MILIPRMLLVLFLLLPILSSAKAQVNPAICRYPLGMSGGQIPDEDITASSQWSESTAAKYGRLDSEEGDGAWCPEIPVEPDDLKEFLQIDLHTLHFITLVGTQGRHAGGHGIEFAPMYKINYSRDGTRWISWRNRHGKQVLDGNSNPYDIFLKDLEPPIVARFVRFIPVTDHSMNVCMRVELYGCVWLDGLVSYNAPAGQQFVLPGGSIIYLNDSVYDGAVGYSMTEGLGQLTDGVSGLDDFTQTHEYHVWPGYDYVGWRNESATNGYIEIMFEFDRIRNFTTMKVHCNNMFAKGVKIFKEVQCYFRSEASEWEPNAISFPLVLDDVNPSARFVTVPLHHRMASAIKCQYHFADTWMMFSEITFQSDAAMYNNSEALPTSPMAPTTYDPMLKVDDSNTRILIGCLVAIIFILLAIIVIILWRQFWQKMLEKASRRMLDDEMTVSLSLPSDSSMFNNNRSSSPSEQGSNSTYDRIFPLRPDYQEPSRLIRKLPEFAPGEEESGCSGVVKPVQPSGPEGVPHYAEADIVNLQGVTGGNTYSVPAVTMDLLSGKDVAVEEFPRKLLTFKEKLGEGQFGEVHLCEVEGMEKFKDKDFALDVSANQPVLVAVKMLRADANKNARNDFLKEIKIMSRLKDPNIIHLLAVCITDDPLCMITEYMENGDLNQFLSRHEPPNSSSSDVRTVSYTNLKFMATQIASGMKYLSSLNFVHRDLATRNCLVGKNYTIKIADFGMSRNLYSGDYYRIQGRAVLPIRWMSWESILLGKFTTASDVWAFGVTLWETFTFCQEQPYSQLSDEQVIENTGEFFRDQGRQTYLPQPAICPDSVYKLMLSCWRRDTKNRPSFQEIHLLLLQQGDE
Dual specificity protein kinase CLK4, sequence (Q9HAZ1 whole entry): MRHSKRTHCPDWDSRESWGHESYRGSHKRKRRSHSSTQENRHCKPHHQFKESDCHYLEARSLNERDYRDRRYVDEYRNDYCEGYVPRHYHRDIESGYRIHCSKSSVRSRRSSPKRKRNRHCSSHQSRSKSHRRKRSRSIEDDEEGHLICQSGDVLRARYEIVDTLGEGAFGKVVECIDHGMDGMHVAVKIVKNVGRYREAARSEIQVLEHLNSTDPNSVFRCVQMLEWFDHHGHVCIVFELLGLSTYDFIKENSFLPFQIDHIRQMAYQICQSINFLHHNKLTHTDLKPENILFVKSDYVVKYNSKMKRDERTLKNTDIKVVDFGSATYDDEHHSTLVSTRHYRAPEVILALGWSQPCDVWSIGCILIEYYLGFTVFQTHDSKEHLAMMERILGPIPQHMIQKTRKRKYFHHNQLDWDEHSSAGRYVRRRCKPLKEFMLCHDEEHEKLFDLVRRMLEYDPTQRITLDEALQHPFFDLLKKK
High affinity nerve growth factor receptor, sequence (P04629 whole entry, the tested form may be a part): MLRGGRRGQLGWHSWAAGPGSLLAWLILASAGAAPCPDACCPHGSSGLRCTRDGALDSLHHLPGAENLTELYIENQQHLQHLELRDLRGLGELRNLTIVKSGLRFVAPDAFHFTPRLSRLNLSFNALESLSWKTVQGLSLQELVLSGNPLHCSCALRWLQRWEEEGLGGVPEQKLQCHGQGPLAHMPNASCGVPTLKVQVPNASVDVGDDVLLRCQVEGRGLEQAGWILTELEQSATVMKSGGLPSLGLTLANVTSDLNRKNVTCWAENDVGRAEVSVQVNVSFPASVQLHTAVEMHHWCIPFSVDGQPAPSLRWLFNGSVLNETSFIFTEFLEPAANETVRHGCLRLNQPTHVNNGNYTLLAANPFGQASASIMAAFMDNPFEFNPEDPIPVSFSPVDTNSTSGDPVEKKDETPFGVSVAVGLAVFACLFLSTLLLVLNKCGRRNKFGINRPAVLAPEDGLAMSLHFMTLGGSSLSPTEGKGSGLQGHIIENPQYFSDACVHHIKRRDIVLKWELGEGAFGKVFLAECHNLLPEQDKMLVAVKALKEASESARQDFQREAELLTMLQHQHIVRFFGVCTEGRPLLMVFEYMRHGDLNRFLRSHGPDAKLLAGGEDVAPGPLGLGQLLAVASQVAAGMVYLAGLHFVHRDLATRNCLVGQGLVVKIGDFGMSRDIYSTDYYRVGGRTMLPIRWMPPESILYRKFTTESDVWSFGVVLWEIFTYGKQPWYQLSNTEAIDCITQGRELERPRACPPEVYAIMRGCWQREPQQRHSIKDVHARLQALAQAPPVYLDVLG

SMILES: O=C(O)c1ccc(-c2coc3ncc(-c4ccccc4)cc23)cc1Cl
- IC50 [1]: > 27000 nM

SMILES: Cc1nnc2c3ccccc3c(N[C@@H](C)[C@H](c3ccccc3)N(C)C)nn12
- IC50 [2]: 48 nM

SMILES: Cc1c(Nc2ccc(S(=O)(=O)N3CCN(C)CC3)cc2F)nc2ccc(Nc3cnn(C4CC4)c3)cn2c1=O
- Kd [3]: 1670 nM

SMILES: O=C(Nc1cccnn1)N1CC(C/C=C/c2cncc(Oc3ccc(C(F)(F)F)cn3)n2)C1
- IC50 [4]: > 100000 nM

SMILES: CN1CCN(Cc2cc(NC(=O)c3ccc4c(c3)CN(c3ccccc3)CC4)cc(C(F)(F)F)c2)CC1
- IC50 [5]: 1730 nM
- IC50 [6]: 6250 nM
- IC50 [7]: > 10000 nM
- IC50 [8]: 8100 nM

SMILES: C[C@H]1CCCN1Cc1nc2cc(NC(=O)c3ccc4cnccc4c3)ccc2[nH]1
- IC50 (Protein AF-9 [9]): 254 nM
- IC50 (Protein ENL): 150 nM

SMILES: CCNC(=O)c1cc2c(N3CCOC[C@@H]3C)ccnc2n1C
- IC50 [10]: > 20000 nM

SMILES: O=C(Nc1ccc(-n2nc(-c3cccnc3)cc2C(F)(F)F)cn1)c1ccc(-c2ccccc2)c(F)c1 [BI 2049]
- IC50 [11]: > 3000 nM

SMILES: CC1=C(C#N)C(c2ccc3c(c2)c(NC(=O)c2ccccc2C)nn3C)C(C#N)=C(C)N1 [BAY-974]
- IC50 [12]: > 20000 nM

SMILES: CCC(=O)N[C@@H]1CC[C@H](C(=O)N(C)c2ccc(-c3nc4ccccc4o3)cc2)C1 [BI 99990]
- IC50 (Fatty acid synthase): > 3000 nM

SMILES: CC(C)C(=O)Nc1n[nH]c2cc(-c3cccc(NS(=O)(=O)C4CC4)c3)ccc12
- Kd [13]: 8800 nM
- Kd [14]: > 10000 nM

SMILES: Cn1cncc1[C@](O)(COc1ccc(C#N)cc1-c1ccc(OC(F)(F)F)cc1)c1ccc(C#N)cc1 [ABT-100]
- IC50 [15]: 0.05 nM

SMILES: CN(C)C(=O)c1ccc(-c2cc(C(=O)N[C@@H]3CCc4ccccc43)no2)cc1O
- IC50 (Protein AF-9 [16]): 160 nM

SMILES: Clc1cccc(-c2nnnn2Cc2cccnc2)c1Cl
- IC50 [17]: 67 nM

SMILES: Cn1cc(-c2ccc3occ(-c4ccccc4-c4ccccc4)c3n2)cn1
- Ki [18]: > 10000 nM
- Ki [19]: > 10000 nM
- Ki [20]: > 10000 nM

SMILES: Cc1ccc(C(=O)Nc2cccc(C(F)(F)F)c2)cc1Nc1nc(-c2cccnc2)nc2c1cnn2C
- IC50 (Ephrin type-B receptor 4): 6 nM

SMILES: CC(=O)N1CCC(c2ccc(C(=O)NC3=NCCN3)cc2C(F)(F)F)CC1 [BI 0054]
- IC50 [21]: > 10000 nM
